Measurements from patent publication US20190175560A1, “MEBENDAZOLE CANCER THERAPIES AND METHODS OF USE” (Shepherd Therapeutics, Inc., priority 2017, published 2019).

How the values were obtained:
Assay type in all cases: cell-based
[1] = system: HCT116 colorectal carcinoma cells; test: Synergy of MBZ with chemotherapeutic agents (Chou-Talalay CI, Cell Titer Glo); details: in combination with MBZ, 72 hour incubation
Experimental: (§1) For in vitro experiments, cells were plated in triplicate and treated with a range of concentrations of MBZ and relevant chemotherapeutic agents in a complete Latin square.
(§2) Cells were plated in triplicate and treated with a range of 5 concentrations of MBZ in combination with 5 concentrations of chemotherapeutic agents in a complete Latin square. Following a 72 hour incubation, cell viability was determined using Cell Titer Glo.

[2] = system: Flo-1 esophageal carcinoma cells; test: as above; details: in combination with MBZ, 72 hour incubation
Experimental: as §1, §2

[3] = system: Hs766t pancreatic carcinoma cells; test: as above; details: in combination with MBZ, 72 hour incubation
Experimental: (§3) Cells were plated in triplicate and treated with a range of 5 concentrations of MBZ in combination with 5 concentrations of chemotherapeutic agents in a complete Latin square. Following a 72 hour incubation, cell viability was determined using Cell Titer Glo. The Combination index (CI) was determined based on the method described by Chou and Talalay (2010) with a CI value less than 0.9 indicating synergy.

[4] = system: SNU16 gastric carcinoma cells; test: Synergy of MBZ or HA-PLGA-MBZ with chemotherapeutic agents (Chou-Talalay CI, Cell Titer Glo); details: in combination with MBZ; SNU16; 72 hour incubation
Experimental: as §1, §2
(§4) In table 22 below, cells were plated in triplicate and treated with a range of 5 concentrations of MBZ or HA-PLGA-MBZ nanoparticles containing a molar equivalent of MBZ, and 5 concentrations of relevant chemotherapeutic agents in a complete Latin square. Combination indexes (CI) were determined based on the method described by Chou-Talalay with a CI value less than 0.9 indicating synergy. […] Numbers in parentheses represent the range of synergistic CI values for each cell line and drug combination.

[5] = system: CCC-5 cholangiocarcinoma cells; test: Synergy of MBZ with chemotherapeutic agents (Chou-Talalay CI, Cell Titer Glo); details: in combination with MBZ, 72 hour incubation
Experimental: as §1, §2

[6] = system: BxPC-3 pancreatic carcinoma cells; test: as above; details: in combination with MBZ, 72 hour incubation
Experimental: as §1, §2

[7] = system: STC-1 carcinoid tumor cell line; test: as above; details: in combination with MBZ, 72 hour incubation
Experimental: as §1, §3

[8] = system: Colo-205 colorectal carcinoma cells; test: as above; details: in combination with MBZ, 72 hour incubation
Experimental: as §1, §2

[9] = system: Kato-III gastric carcinoma cells; test: as above; details: in combination with MBZ, 72 hour incubation
Experimental: as §1, §2

[10] = system: GIST-1 gastrointestinal stromal tumor cell line; test: Synergy of MBZ with small molecule agents (Chou-Talalay CI, Cell Titer Glo); details: in combination with MBZ, 72 hour incubation
Experimental: (§5) For in vitro experiments, cells were plated in triplicate and treated with a range of concentrations of MBZ and relevant chemotherapeutic agents in a complete Latin square. Combination indexes (CI) were determined based on the method described by Chou and Talalay (Cancer Res. 2010 Jan. 15; 70(2):440-6. doi: 10.1158/0008-5472.CAN-09-1947. Epub 2010 Jan. 12).
as §3

[11] = system: SK-N-AS neuroblastoma cells; test: Synergy of MBZ with chemotherapeutic agents (Chou-Talalay CI, Cell Titer Glo); details: in combination with MBZ, 72 hour incubation
Experimental: as §3

LO68 mesothelioma cells = test: as above; details: in combination with MBZ, 72 hour incubation
Experimental: as §1, §3

[12] = system: COV362 ovarian carcinoma cells; test: as above; details: in combination with MBZ, 72 hour incubation
Experimental: as §1, §2

[13] = system: CHP-212 neuroblastoma cells; test: Synergy of MBZ or HA-PLGA-MBZ with chemotherapeutic agents (Chou-Talalay CI, Cell Titer Glo); details: in combination with MBZ; CHP-212; 72 hour incubation
Experimental: as §1, §2, §4

JU77 mesothelioma cells = test: Synergy of MBZ with chemotherapeutic agents (Chou-Talalay CI, Cell Titer Glo); details: in combination with MBZ, 72 hour incubation
Experimental: as §1, §3

[14] = system: OE-33 esophageal carcinoma cells; test: as above; details: in combination with MBZ, 72 hour incubation
Experimental: as §1, §2

[15] = system: MSTO-211H mesothelioma cells; test: as above; details: in combination with MBZ, 72 hour incubation
Experimental: as §1, §3

[16] = system: TOV-112D ovarian carcinoma cells; test: as above; details: in combination with MBZ, 72 hour incubation
Experimental: as §1, §3

[17] = system: TFK-1 cholangiocarcinoma cells; test: as above; details: in combination with MBZ, 72 hour incubation
Experimental: as §5, §3

[18] = system: H295R adrenocortical carcinoma cells; test: as above; details: in combination with MBZ, 72 hour incubation
Experimental: as §5, §3

[19] = system: SW-1271 small cell lung carcinoma cells; test: as above; details: in combination with MBZ, 72 hour incubation
Experimental: as §1, §3

[20] = system: DMS-114 small cell lung carcinoma cells; test: as above; details: in combination with MBZ, 72 hour incubation
Experimental: as §5, §3

[21] = system: SW13 adrenocortical carcinoma cells; test: as above; details: in combination with MBZ, 72 hour incubation
Experimental: as §3

[22] = system: PC12 pheochromocytoma/paraganglioma cell line; test: Synergy of MBZ or HA-PLGA-MBZ with chemotherapeutic agents (Chou-Talalay CI, Cell Titer Glo); details: in combination with MBZ; PC12; 72 hour incubation
Experimental: as §1, §2, §4

[23] = system: SK-LMS-1 leiomyosarcoma cells; test: Synergy of MBZ with chemotherapeutic agents (Chou-Talalay CI, Cell Titer Glo); details: in combination with MBZ, 72 hour incubation
Experimental: as §3

[24] = system: SK-UT-1B leiomyosarcoma cells; test: as above; details: in combination with MBZ, 72 hour incubation
Experimental: as §5, §3

[25] = system: SK-UT-1 leiomyosarcoma cells; test: as above; details: in combination with MBZ, 72 hour incubation
Experimental: as §3

[26] = system: HepG2-C3A hepatocellular carcinoma cells; test: as above; details: in combination with MBZ, 72 hour incubation
Experimental: as §1, §3

[27] = system: HepG2 hepatocellular carcinoma cells; test: as above; details: in combination with MBZ, 72 hour incubation
Experimental: as §1, §2

## O=c1[nH]cc(F)c(=O)[nH]1 [5-FU, 5-Fluorouracil]
[1]
  CI range for the concentration pairings: 0.285-0.860
[2]
  CI range for the concentration pairings: 0.370-0.855
[3]
  CI range for the concentration pairings: 0.170-0.877
[4]
  CI range for the concentration pairings: 0.429-0.827
[5]
  CI range for the concentration pairings: 0.252-0.878
[6]
  CI range for the concentration pairings: 0.448-0.792
[7]
  CI range for the concentration pairings: 0.458-0.850
[8]
  CI range for the concentration pairings: 0.528-0.748
[9]
  CI range for the concentration pairings: 0.073-0.558

## CCN1CCN(Cc2ccc(Nc3ncc(F)c(-c4cc(F)c5nc(C)n(C(C)C)c5c4)n3)nc2)CC1 [Abemaciclib]
[10]
  CI range for the concentration pairings: 0.390-0.701

## N.N.O=C([O-])C1(C(=O)[O-])CCC1.[Pt+2] [Carboplatin]
[11]
  CI range for the concentration pairings: 0.433-0.891
[2]
  CI range for the concentration pairings: 0.063-0.603
LO68 mesothelioma cells
  CI range for the concentration pairings: 0.574-0.865
[12]
  CI range for the concentration pairings: 0.553-0.860
[13]
  CI range for the concentration pairings: 0.587-0.876
[4]
  CI range for the concentration pairings: 0.409-0.783
JU77 mesothelioma cells
  CI range for the concentration pairings: 0.539-0.841
[14]
  CI range for the concentration pairings: 0.542-0.636
[15]
  synergy with MBZ (Yes/No): No
[16]
  CI range for the concentration pairings: 0.506-0.845
[9]
  synergy with MBZ (Yes/No): No

## N.N.[Cl][Pt][Cl] [Cisplatin]
[17]
  CI range for the concentration pairings: 0.405-0.877
[11]
  CI range for the concentration pairings: 0.141-0.746
[18]
  CI range for the concentration pairings: 0.544-0.771
[19]
  CI range for the concentration pairings: 0.275-0.763
[12]
  CI range for the concentration pairings: 0.578-0.878
[3]
  CI range for the concentration pairings: 0.658-0.847
[20]
  CI range for the concentration pairings: 0.223-0.837
[13]
  CI range for the concentration pairings: 0.653-0.896
[21]
  CI range for the concentration pairings: 0.410-0.883
[5]
  CI range for the concentration pairings: 0.121-0.716
[6]
  CI range for the concentration pairings: 0.469-0.762
[7]
  CI range for the concentration pairings: 0.441-0.785
[16]
  CI range for the concentration pairings: 0.497-0.860

## O=P1(N(CCCl)CCCl)NCCCO1 (stereo not drawn) [Cyclophosphamide]
[22]
  CI range for the concentration pairings: 0.388-0.879
[13]
  CI range for the concentration pairings: 0.569-0.860
[7]
  CI range for the concentration pairings: 0.226-0.784

## CN(C)/N=N/c1[nH]cnc1C(N)=O [Dacarbazine]
[22]
  CI range for the concentration pairings: 0.246-0.785

## CC(=O)O[C@@]12CO[C@@H]1C[C@H](O)[C@@]1(C)C(=O)[C@H](O)C3=C(C)[C@@H](OC(=O)[C@H](O)[C@@H](NC(=O)OC(C)(C)C)c4ccccc4)C[C@@](O)([C@@H](OC(=O)c4ccccc4)[C@H]21)C3(C)C [Docetaxel]
[23]
  synergy with MBZ (Yes/No): No
[12]
  CI range for the concentration pairings: 0.399-0.867
[16]
  synergy with MBZ (Yes/No): No

## COc1cccc2c1C(=O)c1c(O)c3c(c(O)c1C2=O)C[C@@](O)(C(=O)CO)C[C@@H]3O[C@H]1C[C@H](N)[C@H](O)[C@H](C)O1 [Doxorubicin]
[24]
  CI range for the concentration pairings: 0.716-0.887
[11]
  CI range for the concentration pairings: 0.267-0.849
[18]
  synergy with MBZ (Yes/No): No
[23]
  CI range for the concentration pairings: 0.514-0.872
LO68 mesothelioma cells
  CI range for the concentration pairings: 0.433-0.875
[25]
  synergy with MBZ (Yes/No): No
[13]
  CI range for the concentration pairings: 0.646-0.883
JU77 mesothelioma cells
  CI range for the concentration pairings: 0.458-0.820
[21]
  CI range for the concentration pairings: 0.771-0.850
[15]
  CI range for the concentration pairings: 0.288-0.700
[7]
  CI range for the concentration pairings: 0.419-0.829

## COc1cc([C@@H]2c3cc4c(cc3[C@@H](O[C@@H]3O[C@@H]5CO[C@@H](C)O[C@H]5[C@H](O)[C@H]3O)[C@H]3COC(=O)[C@H]23)OCO4)cc(OC)c1O [Etoposide]
[1]
  CI range for the concentration pairings: 0.607-0.890
[19]
  CI range for the concentration pairings: 0.535-0.899
[20]
  CI range for the concentration pairings: 0.551-0.832
[13]
  CI range for the concentration pairings: 0.647-0.891
[21]
  CI range for the concentration pairings: 0.618-0.710
[7]
  CI range for the concentration pairings: 0.253-0.893
[8]
  CI range for the concentration pairings: 0.293-0.707

## Nc1ccn([C@@H]2O[C@H](CO)[C@@H](O)C2(F)F)c(=O)n1 [Gemcitabine]
[26]
  synergy with MBZ (Yes/No): No
[24]
  CI range for the concentration pairings: 0.410-0.893
[17]
  synergy with MBZ (Yes/No): No
[23]
  CI range for the concentration pairings: 0.418-0.861
LO68 mesothelioma cells
  CI range for the concentration pairings: 0.525-0.845
[25]
  CI range for the concentration pairings: 0.385-0.802
[3]
  CI range for the concentration pairings: 0.149-0.874
[27]
  CI range for the concentration pairings: 0.012-0.796
JU77 mesothelioma cells
  CI range for the concentration pairings: 0.362-0.712
[5]
  CI range for the concentration pairings: 0.394-0.855
[6]
  CI range for the concentration pairings: 0.502-0.770
[15]
  CI range for the concentration pairings: 0.086-0.796

## O=P1(NCCCl)OCCCN1CCCl (stereo not drawn) [Ifosamide]
[25]
  CI range for the concentration pairings: 0.317-0.708

## Cc1ccc(NC(=O)c2ccc(CN3CCN(C)CC3)cc2)cc1Nc1nccc(-c2cccnc2)n1 [Imatinib]
[10]
  CI range for the concentration pairings: 0.627-0.875

## CCc1c2c(nc3ccc(OC(=O)N4CCC(N5CCCCC5)CC4)cc13)-c1cc3c(c(=O)n1C2)COC(=O)[C@]3(O)CC [Irinotecan]
[1]
  CI range for the concentration pairings: 0.545-0.793
[2]
  CI range for the concentration pairings: 0.439-0.871
[3]
  synergy with MBZ (Yes/No): No
[4]
  CI range for the concentration pairings: 0.635-0.871
[6]
  CI range for the concentration pairings: 0.659-0.793
[14]
  CI range for the concentration pairings: 0.589-0.757
[8]
  CI range for the concentration pairings: 0.502-0.819
[9]
  synergy with MBZ (Yes/No): No

## O=C1[O][Pt]2([NH][C@@H]3CCCC[C@H]3[NH]2)[O]C1=O [Oxaliplatin]
[1]
  CI range for the concentration pairings: 0.493-0.728
[2]
  CI range for the concentration pairings: 0.355-0.875
[27]
  CI range for the concentration pairings: 0.036-0.834
[4]
  CI range for the concentration pairings: 0.571-0.883
[5]
  CI range for the concentration pairings: 0.060-0.631
[6]
  CI range for the concentration pairings: 0.455-0.758
[14]
  CI range for the concentration pairings: 0.395-0.597
[9]
  CI range for the concentration pairings: 0.587-0.897

## CC(=O)O[C@H]1C(=O)[C@@]2(C)[C@H]([C@H](OC(=O)c3ccccc3)[C@]3(O)C[C@H](OC(=O)[C@H](O)[C@@H](NC(=O)c4ccccc4)c4ccccc4)C(C)=C1C3(C)C)[C@]1(OC(C)=O)CO[C@@H]1C[C@@H]2O [Paclitaxel]
[2]
  CI range for the concentration pairings: 0.430-0.864
[12]
  CI range for the concentration pairings: 0.318-0.889
[4]
  CI range for the concentration pairings: 0.425-0.883
[6]
  CI range for the concentration pairings: 0.341-0.845
[16]
  CI range for the concentration pairings: 0.367-0.839
[9]
  CI range for the concentration pairings: 0.193-0.508

## CC[C@]1(O)C[C@H]2CN(CCc3c([nH]c4ccccc34)[C@@](C(=O)OC)(c3cc4c(cc3OC)N(C=O)[C@H]3[C@@](O)(C(=O)OC)[C@H](OC(C)=O)[C@]5(CC)C=CCN6CC[C@]43[C@@H]65)C2)C1 [Vincristine]
[22]
  CI range for the concentration pairings: 0.274-0.871

## CCC1=C[C@@H]2CN(C1)Cc1c([nH]c3ccccc13)[C@@](C(=O)OC)(c1cc3c(cc1OC)N(C)[C@H]1[C@@](O)(C(=O)OC)[C@H](OC(C)=O)[C@]4(CC)C=CCN5CC[C@]31[C@@H]54)C2 [Vinorelbine]
LO68 mesothelioma cells
  CI range for the concentration pairings: 0.445-0.872
JU77 mesothelioma cells
  CI range for the concentration pairings: 0.325-0.799
[15]
  CI range for the concentration pairings: 0.087-0.885
